In brackets after ≈: the same amount, converted by molar mass. Where a SMILES comes first, the peptide text is derived from it. Where no end group is shown, it is not given here.
Experiments:
[1] = tested on: all tested bacteria (E. coli, S. Enteritidis, S. Typhimurium, C. jejuni, C. perfringens); settings: 10^4–10^5 CFU/ml, 2 h
[2] = tested on: Clostridium perfringens JP26; settings: Clostridium perfringens JP26, 10^4–10^5 CFU/ml in PBS pH 7.4, 2 h at 37 °C, duplicate, plating
HD11 cells = assay: HD11 cytotoxicity, WST-1 assay; settings: 1.875 to 30 µg/ml, 24 h
[3] = tested on: human PBMCs, monocyte chemotactic protein 1 (MCP-1); design: method as in PMID 19524300; settings: in vitro stimulation of human PBMCs for 24 h; cited from earlier work
E. coli EC317 = settings: EC317, 2 h, 240 µg/ml
[4] = tested on: human peripheral blood mononuclear cells (PBMCs) and chicken erythrocytes; settings: cited from earlier work

Molecule	Minimum inhibitory concentration (MIC) that kills 100% bacteria [2]	Effect on growth and metabolic activity of HD11 cells (in words) (HD11 cells)	other results
CC[C@H](C)[C@H](NC(=O)[C@H](CCCNC(=N)N)NC(=O)[C@H](CCCCN)NC(=O)[C@H](CS)NC(=O)[C@H](CS)NC(=O)[C@H](CC(C)C)NC(=O)[C@H](Cc1ccc(O)cc1)NC(=O)[C@H](Cc1ccccc1)NC(=O)[C@H](CCCNC(=N)N)NC(=O)[C@H](CO)NC(=O)[C@H](CS)NC(=O)[C@H](CCCCN)NC(=O)CNC(=O)[C@H](CO)NC(=O)[C@@H](NC(=O)[C@H](CC(C)C)NC(=O)[C@@H](NC(=O)[C@H](CC(C)C)NC(=O)[C@H](CO)NC(=O)[C@@H]1CCCN1C(=O)[C@H](CS)NC(=O)[C@H](CCCCN)NC(=O)[C@H](CC(C)C)NC(=O)[C@H](Cc1ccccc1)NC(=O)[C@H](C)NC(=O)[C@H](CS)NC(=O)[C@H](Cc1ccccc1)NC(=O)CNC(=O)[C@H](CO)NC(=O)[C@H](CCCCN)NC(=O)[C@H](CCCNC(=N)N)NC(=O)[C@H](Cc1ccccc1)NC(=O)[C@H](CS)NC(=O)[C@H](CC(=O)O)NC(=O)[C@H](CO)NC(=O)[C@H](CCCCN)NC(=O)[C@H](CCCNC(=N)N)NC(=O)CN)[C@@H](C)O)[C@@H](C)CC)C(=O)N[C@@H](Cc1c[nH]c2ccccc12)C(=O)O [ABD1] (H-GRKSDCFRKSGFCAFLKCPSLTLISGKCSRFYLCCKRIW-OH)	0.83 µM (≈ 3.74 µg/mL)	not shown any significant effect	MIC over all tested bacteria ([1]; five strains): 0.83 to 1.66 µM
CC[C@H](C)[C@H](NC(=O)[C@H](CC(C)C)NC(=O)[C@H](Cc1c[nH]cn1)NC(=O)[C@H](CO)NC(=O)[C@@H]1CCCN1C(=O)[C@H](CS)NC(=O)CNC(=O)CNC(=O)[C@H](Cc1ccccc1)NC(=O)[C@H](Cc1c[nH]cn1)NC(=O)[C@H](CS)NC(=O)[C@H](CO)NC(=O)CNC(=O)CNC(=O)[C@H](CCCCN)NC(=O)[C@H](CS)NC(=O)[C@H](Cc1ccccc1)NC(=O)[C@H](CC(C)C)NC(=O)[C@H](CCSC)NC(=O)[C@H](CC(=O)O)NC(=O)[C@@H](N)CCCNC(=N)N)C(=O)N[C@@H](CCCCN)C(=O)N[C@H](C(=O)NCC(=O)N[C@@H](CO)C(=O)N[C@@H](CS)C(=O)N[C@@H](Cc1ccccc1)C(=O)NCC(=O)N[C@@H](Cc1ccccc1)C(=O)N[C@@H](CCCNC(=N)N)C(=O)N[C@@H](CO)C(=O)N[C@@H](CS)C(=O)N[C@@H](CS)C(=O)N[C@@H](CCCCN)C(=O)N[C@@H](Cc1c[nH]c2ccccc12)C(=O)N1CCC[C@H]1C(=O)N[C@@H](Cc1c[nH]c2ccccc12)C(=O)N[C@@H](CC(N)=O)C(=O)N[C@@H](C)C(=O)O)C(C)C [ABD2] (H-RDMLFCKGGSCHFGGCPSHLIKVGSCFGFRSCCKWPWNA-OH)	> 55.50 µM	not shown any significant effect	–
CATH-2(1–21): analog of CATH-2 (literature values)	–	–	MCP-1 production (in words) [3]: significant induction
CATH-2: mature, full-length chicken cathelicidin-2 (literature values)	–	–	MCP-1 production (in words) [3]: significant induction
DTLACRQSHGSCSFVACRAPSVDIGTCRGGKLKCCKWAPSS (cysteines drawn unpaired) [ABD9]	> 55.97 µM	not shown any significant effect	Growth inhibition (E. coli EC317): 40–90%
RFGRFLRKIRRFRPK [CATH-2(1–15)]	> 118.05 µM	–	Toxicity (in words) [4]: non-toxic or very mildly toxic; MIC over tested Gram-negative bacteria ([1]; E. coli, S. Enteritidis, S. Typhimurium, C. jejuni): 0.92 to 7.38 µM
SPIHACRYQRGVCIPGPCRWPYYRVGSCGSGLKSCCVRNRWA (cysteines drawn unpaired) [ABD6]	50.59 µM	not shown any significant effect	–
